ChEMBL document CHEMBL1128050, “The discovery of a novel and potent benzodiazepine receptor pharmacophore” (Bioorg Med Chem Lett, 1995)

The molecules below were run against GABA-A receptor; anion channel (assay: Binding affinity to the benzodiazepine receptor assayed using 0.5 nM [3H]flunitrazapam as radioligand in guinea pig cerebellum). Details: not given.
Assay type: tissue-based, Cavia porcellus

Structure (SMILES) | IC50 [nM]
CN1CCC[C@@H]1Cc1c[nH]c2ccc(-n3cnc4cc(Cl)ccc43)cc12 | 1.1
Cc1ccc2c(c1)ncn2-c1ccc2[nH]ccc2c1 | 0.79
CN1CCC[C@@H]1Cc1c[nH]c2ccc(-n3cnc4cc(CN)ccc43)cc12 | 13
N#Cc1ccc2c(c1)ncn2-c1ccc2[nH]ccc2c1 | 18
Cc1ccc2c(c1)ncn2-c1ccc2[nH]cc(C[C@H]3CCCN3C)c2c1 | 0.16
CN1CCC[C@@H]1Cc1c[nH]c2ccc(-n3cnc4cc(C#N)ccc43)cc12 | 2.8
CN1CCC[C@H]1Cc1c[nH]c2ccc(-n3cnc4cc(C#N)ccc43)cc12 | 1.8
c1cnc2c(c1)ncn2-c1ccc2[nH]cc(C[C@H]3CCCN3)c2c1 | 110
Cc1ccnc2c1ncn2-c1ccc2[nH]cc(C[C@H]3CCCN3C)c2c1 | 12
CN1CCC[C@@H]1Cc1c[nH]c2ccc(-n3cnc4ccccc43)cc12 | 16
N#Cc1ccc2c(c1)ncn2-c1ccc2[nH]cc(C3CCNCC3)c2c1 | 0.24
O=Cc1c[nH]c2ccc(-n3cnc4cccnc43)cc12 | 209
Cc1ccc2c(c1)ncn2-c1ccc2[nH]cc(C3CCNCC3)c2c1 | 0.49
COCCN1CCC[C@@H]1Cc1c[nH]c2ccc(-n3cnc4cc(C#N)ccc43)cc12 | 24
CN1CCC[C@@H]1Cc1c[nH]c2ccc(Nc3ncccc3[N+](=O)[O-])cc12 | 9600
CN1CCC[C@@H]1Cc1c[nH]c2ccc(-n3ccc4cc(C#N)ccc43)cc12 | > 1000
CN1CCC[C@@H]1Cc1c[nH]c2ccc(-n3cnc4cc(NC(Cc5c[nH]c6ccccc56)C(=O)NC(=O)OCc5ccccc5)ccc43)cc12 (some centres undefined) | 33
N#Cc1ccc2c(c1)ncn2-c1ccc2[nH]cc(C3=CCNCC3)c2c1 | 0.46
CN1CCC[C@@H]1Cc1c[nH]c2ccc(-n3cnc4cc(C#N)cnc43)cc12 | 9.8
N#Cc1ccc2c(c1)ncn2-c1ccc2[nH]cc(C=O)c2c1 | 19
Cc1ccc2c(c1)ncn2-c1ccc2[nH]cc(C3=CCN(C(=O)OC(C)(C)C)CC3)c2c1 | 31
CN1CCC[C@@H]1Cc1c[nH]c2ccc(-n3cnc4cccnc43)cc12 | 27
COCCN1CCC[C@@H]1Cc1c[nH]c2ccc(-n3cnc4cc(NC(=O)Nc5ccccc5)ccc43)cc12 | 17
COCCN1CCC(c2c[nH]c3ccc(-n4cnc5cc(C#N)ccc54)cc23)CC1 | 0.6
COCCN1CCC[C@@H]1Cc1c[nH]c2ccc(-n3cnc4cc(CN)ccc43)cc12 | 55
CN1CCC(c2c[nH]c3ccc(-n4cnc5cc(C#N)ccc54)cc23)C1 (centres undefined) | 2.2

The molecules below were run against GABA-A receptor; anion channel (Homo sapiens) (UniProt P14867+P47870+P18507+P28472+P48169+Q99928+Q9UN88+P34903+O00591+O14764+Q8N1C3+P18505+P78334+P47869+P31644+Q16445) (assay: Inhibition of [3H]flunitrazapam binding to GABA-A central benzodiazepine receptor of guinea pig cerebellum at 10 uM). Details: Cavia porcellus, target entry is the homologue from another species.
Assay type: tissue-based

Structure (SMILES) | inhibition [%]
CN1CCC(c2c[nH]c3ccc(-n4ccc5cc(C#N)ccc54)cc23)C1 (centres undefined) | 34
CN1CCC[C@@H]1Cc1c[nH]c2ccc(-n3ccc4cc(C#N)ccc43)cc12 | 37

These molecules were tested against GABA-A receptor; anion channel (assay: Displacement of [3H]flunitrazapam from GABA-A central benzodiazepine receptor of guinea pig cerebellum). Details: not given.
Assay type: tissue-based, Cavia porcellus

IC50 [nM] | Structure (SMILES)
27 | N#Cc1ccc2c(c1)ncn2-c1ccc2[nH]cc(C[C@H]3CCCN3CC3CC3)c2c1
